Test [1] concerns IL-2 production, Jurkat cells. Put plainly: Inhibition of IL-2 production in PHA-activated Jurkat cells (ELISA). Conditions: Homo sapiens, 1% FBS. The test is classed as cell-based. The procedure: Jurkat cells were placed in a 96 well plate (0.5 million cells per well in 1% FBS medium), and then a test compound of this invention was added at different concentrations. After 10 minutes, the cells were activated with PHA (final concentration 2.5 μg/mL) and incubated for 20 hours at 37° C. under 5% CO2. The final volume was 200 μL. Following incubation, the cells were centrifuged, and the supernatants collected and stored at −70° C. prior to assaying for IL-2 production. A commercial ELISA kit (IL-2 Eli-pair, Diaclone Research, Besancon, France) was used to detect production of IL-2, from which dose response curves were obtained. The IC50 value was calculated as the concentration at which 50% of maximum IL-2 production after stimulation was inhibited versus a non-stimulation control.
For orientation: ELISA stands for enzyme-linked immunosorbent assay.

Test [2] addresses T1, CRACM1/STIM1-CHOK1 (Homo sapiens, UniProt Q96D31).
T1 construct: Full length human Stim1, CracM1, CracM2 and CracM3 cDNA; Stim1 induced with doxycycline
Put plainly: Patch clamp inhibition of ICRAC current in CRACM1/STIM1-CHOK1 cells. Conditions: 500 nM; given as activity class. Format: cell-based. On the procedure: Manual patch clamp experiments are conducted in the tight-seal whole-cell configuration at room temperature (21-25° C.). Patch pipettes are fashioned from borosilicate glass capillary tubes and have resistances between 2-4 MΩ after filling with standard intracellular solution. High resolution current recordings are acquired with a computer-based patch clamp amplifier system (EPC-10, HEKA, Lambrecht, Germany). All voltages are corrected for a liquid junction potential of 10 mV between external and internal solutions with glutamate as the intracellular anion. Currents are filtered at 2.9 kHz and digitized at 10 μs intervals. Capacitive currents and series resistance are determined and corrected before each voltage ramp using the automatic capacitance compensation of the EPC-10.
Automated patch clamp experiments are conducted with the QPatch 16 (Sophion Bioscience, Ballerup, Denmark) at room temperature (21-25° C.). Immediately following the establishment of giga-seal whole-cell configuration, the cells membrane potential is clamped at 0 mV. Voltage ramps of 50 ms duration spanning the voltage range of −100 to +100 mV are then stimulated at a rate of 0.33 Hz. Currents are filtered at 2.9 kHz and digitized at 200 μs intervals. Capacitive currents and series resistance are determined and corrected before each voltage ramp using the automatic capacitance compensation.
In general, a whole cell patch clamp method is used to examine the effects of a compound of the invention on a channel(s) that mediates ICRAC. In such experiments, a baseline ICRAC measurement is established within the first 70 voltage ramps, or 140 seconds, for a patched cell. Then the cells are perfused with the compound to be tested and the effect of the compound on ICRAC is measured for at least an additional 440 to 500 seconds. A compound that modulates ICRAC (e.g., inhibits) is a compound that is useful in the invention for modulating CRAG ion channel activity.
Off-line analysis with the Heka PatchMaster software is used to separate the ICRAC membrane current from the cells basal background currents. In a typical recording, InsP3 stimulated ICRAC currents begin to develop in 6 to 12 seconds after whole cell is established. Therefore, the first 1-4 voltage ramps represent the basal membrane currents in the absence of ICRAC and the average value is subtracted from all subsequent traces. The current value at −80 mV for each ramp trace is then measured and plotted against time. The resulting current versus time data is exported into a Microsoft Excel spreadsheet. The % ICRAC inhibition in each cell is calculated by comparing the amount of current just prior to the compound perfusion to the amount of current after the cells has been perfused with the compound for 440-500 seconds. The IC50 value and Hill coefficient for each compound is estimated by fitting all the individual data points to a single-site Hill equation.
TREx™-CHO cells were transfected with human Stim1 (recombinant DNA in pcDNA4/TO/myc-His™ A with a myc epitope tag in the N-terminal) and either CracM1, CracM2 or CracM3 (recombinant DNA in pcDNA 3.1 with a HA epitope tag in the N-terminal). Stably expressing cells were selected by growing the transfected cells in antibiotics for two to three weeks. Individual cell clones were isolated via serial dilution. Full length human Stim1, CracM1, CracM2 and CracM3 cDNA, TREx™-CHO cells, pcDNA4/TO/myc-His™ A and pcDNA 3.1 were purchased from Invitrogen (Carlsbad, Calif.). All cells clones are grown in Ham's F-12 media supplemented with 10% fetal bovine serum, penicillin 100 U/ml, streptomycin 100 ? g/ml, Zeocin™ (200 ? g/ml), Geneticin (500 ? g/ml) and blasticidin (10 ? g/ml) in an atmosphere of 95% air/5% CO2. Stim1 expression was induced with doxycycline (1 ? g/ml) for 16-20 hrs. […]

pIC50: −log10 of the molar value.

T1 sequence (Q96D31 whole entry): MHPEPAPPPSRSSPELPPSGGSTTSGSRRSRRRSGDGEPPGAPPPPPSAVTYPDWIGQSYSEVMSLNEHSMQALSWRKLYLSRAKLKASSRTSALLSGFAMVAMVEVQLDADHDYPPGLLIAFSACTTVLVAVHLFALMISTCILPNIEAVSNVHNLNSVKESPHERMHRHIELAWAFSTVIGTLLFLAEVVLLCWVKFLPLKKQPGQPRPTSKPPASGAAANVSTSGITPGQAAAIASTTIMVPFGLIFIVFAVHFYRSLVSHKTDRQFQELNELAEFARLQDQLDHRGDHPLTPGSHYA

On to `Cc1ccc(C#Cc2cccnc2)cc1-c1cnc(NC(=O)c2c(F)cccc2F)cn1` [Compound 1, 2,6-difluoro-N-(5-(2-methyl-5-(pyridin-3-ylethynyl)phenyl)-pyrazin-2-yl)benzamide], for which the pIC50 in test [1] (given as activity class) is above 7.30. This compound returned an inhibition at 0.5 µM in test [2] of 70 to 100%.
Regarding `Cc1ccc(C#Cc2cccnc2)cc1-c1ccc(NC(=O)c2c(F)cccc2F)cc1` [Compound 2, 2,6-difluoro-N-(2′-methyl-5′-(pyridin-3-ylethynyl)biphenyl-4-yl)benzamide], in test [1] (given as activity class), the pIC50 was above 7.30. In test [2], this compound registered an inhibition at 0.5 µM of 70 to 100%.
The corresponding values for `Cc1ccc(Nc2ccccn2)cc1-c1ccc(NC(=O)c2c(F)cccc2F)cc1` [Compound 3, 2,6-difluoro-N-(2′-methyl-5′-(pyridin-2-ylamino)biphenyl-4-yl)benzamide] are above 7.30 and 50 to 70%.
In the same order, the values of `O=C(Nc1ccc(-c2cc(Oc3ccccn3)ccc2Cl)cc1)c1c(F)cccc1F` [Compound 4, N-(2′-chloro-5′-(pyridin-2-yloxy)biphenyl-4-yl)-2,6-difluorobenzamide] are above 7.30 and 70 to 100%.
The corresponding values for `O=C(Nc1ccc(-c2cc(Oc3ccccn3)ccc2Cl)cn1)c1c(F)cccc1F` [Compound 5, N-(5-(2-chloro-5-(pyridin-2-yloxy)phenyl)pyridin-2-yl)-2,6-difluorobenzamide] are above 7.30 and 70 to 100%.
As to `Cc1ccc(Oc2cccnc2)cc1-c1ccc(NC(=O)c2c(F)cccc2F)cc1` [Compound 6, 2,6-difluoro-N-(2′-methyl-5′-(pyridin-3-yloxy)biphenyl-4-yl)benzamide], in test [1] (given as activity class), the negative logarithm of the IC50 (pIC50) is above 7.30. Moreover, the inhibition at 0.5 µM in test [2] lay in the range of 70 to 100%.
The corresponding values for `Cc1ccc(Oc2cccnc2)cc1-c1ccc(NC(=O)c2c(F)cccc2F)nc1` [Compound 7, 2,6-difluoro-N-(5-(2-methyl-5-(pyridin-3-yloxy)phenyl)-pyridin-2-yl)benzamide] are above 7.30 and 70 to 100%.
In test [1] (given as activity class), `Cc1ccc(Oc2cccnc2)cc1-c1cnc(NC(=O)c2c(F)cccc2F)cn1` [Compound 8, 2,6-difluoro-N-(5-(2-methyl-5-(pyridin-3-yloxy)phenyl)-pyrazin-2-yl)benzamide] gave a pIC50 above 7.30. In test [2], the inhibition at 0.5 µM lay in the range of 70 to 100%.
In the same order, the values of `Cc1ccc(Oc2ccccn2)cc1-c1ccc(NC(=O)c2c(F)cccc2F)nc1` [Compound 9, 2,6-difluoro-N-(5-(2-methyl-5-(pyridin-2-yloxy)phenyl)-pyridin-2-yl)benzamide] are above 7.30 and 70 to 100%.
In the same order, the values of `Cc1cnc(Oc2ccc(Cl)c(-c3ccc(NC(=O)c4c(F)cccc4F)cc3)c2)s1` [Compound 10, N-(2′-chloro-5′-(5-methylthiazol-2-yloxy)biphenyl-4-yl)-2,6-difluorobenzamide] are 7.00 to 7.30 and 70 to 100%.
In the same order, the values of `O=C(Nc1ccc(-c2cc(Oc3nccs3)ccc2Cl)cc1)c1c(F)cccc1F` [Compound 11, N-(2′-chloro-5′-(thiazol-2-yloxy)biphenyl-4-yl)-2,6-difluorobenzamide] are above 7.30 and 70 to 100%.
`O=C(Nc1ccc(-c2cc(Oc3nccs3)ccc2Cl)cn1)c1c(F)cccc1F` [Compound 12, N-(5-(2-chloro-5-(thiazol-2-yloxy)phenyl)pyridin-2-yl)-2,6-difluorobenzamide] gave a pIC50 in test [1] (given as activity class) above 7.30. This compound came in with an inhibition at 0.5 µM in test [2] of 70 to 100%.
In the same order, the values of `Cc1ccc(OCc2ccccn2)cc1-c1ccc(NC(=O)c2c(F)cccc2F)cc1` [Compound 13, 2,6-difluoro-N-(2′-methyl-5′-(pyridin-2-ylmethoxy)-biphenyl-4-yl)benzamide] are above 7.30 and 70 to 100%.
For the compound `Cc1ccc(Cn2ccnc2)cc1-c1ccc(NC(=O)c2c(F)cccc2F)cc1` [Compound 14, N-(5′-((1H-imidazol-1-yl)methyl)-2′-methylbiphenyl-4-yl)-2,6-difluorobenzamide], the pIC50 in test [1] (given as activity class) is above 7.30. This compound also displayed an inhibition at 0.5 µM in test [2] of 70 to 100%.
In test [1] (given as activity class), `Cc1ccc(CCc2cccnc2)cc1-c1ccc(NC(=O)c2c(F)cccc2F)cc1` [Compound 15, 2,6-difluoro-N-(2′-methyl-5′-(2-(pyridin-3-yl)ethyl)biphenyl-4-yl)benzamide] had a pIC50 above 7.30. The compound further had an inhibition at 0.5 µM in test [2] of 70 to 100%.
In the same order, the values of `Cc1ccc(CCc2cccnc2)cc1-c1cnc(NC(=O)c2c(F)cccc2F)cn1` [Compound 16, 2,6-difluoro-N-(5-(2-methyl-5-(2-(pyridin-3-yl)ethyl)phenyl)-pyrazin-2-yl)benzamide] are above 7.30 and 50 to 70%.
Compound `Cc1ccc(Oc2ccccn2)cc1-c1cnc(NC(=O)c2c(F)cccc2F)cn1` [Compound 32, 2,6-difluoro-N-(5-(2-methyl-5-(pyridin-2-yloxy)phenyl)pyrazin-2-yl)benzamide] gave a pIC50 in test [1] (numeric values) of 7.57.
As to `Cc1ccc(Oc2ccccn2)cc1-c1ccc(NC(=O)c2cccc(F)c2C)nc1` [Compound 33, 3-fluoro-2-methyl-N-(5-(2-methyl-5-(pyridin-2-yloxy)phenyl)pyridin-2-yl)benzamide], the pIC50 in test [1] (numeric values) is 7.05.
Regarding `Cc1cc(Oc2cccnc2)ncc1-c1ccc(NC(=O)c2cccc(F)c2C)nc1` [Compound 34, 3-fluoro-2-methyl-N-(4′-methyl-6′-(pyridin-3-yloxy)-3,3′-bipyridin-6-yl)benzamide], the negative-log IC50 (pIC50) in test [1] (numeric values) was 7.85.
In turn, `Cc1ccc(Oc2ccccn2)cc1-c1ccc(NC(=O)c2ccncc2F)nc1` [Compound 35, 3-fluoro-N-(5-(2-methyl-5-(pyridin-2-yloxy)phenyl)pyridin-2-yl)isonicotinamide] had a negative logarithm of the IC50 (pIC50) in test [1] (numeric values) of 7.80.
Take `O=C(Nc1cnc(-c2cc(Oc3ccccn3)ccc2Cl)cn1)c1c(F)cccc1F` [Compound 36, N-(5-(2-chloro-5-(pyridin-2-yloxy)phenyl)pyrazin-2-yl)-2,6-difluorobenzamide]: in test [1] (numeric values), the negative logarithm of the IC50 (pIC50) was 7.80.
Still for that read-out and setting: as for `COc1ccc(Oc2ccccn2)cc1-c1ccc(NC(=O)c2cccc(F)c2C)nc1` [Compound 38, 3-fluoro-N-(5-(2-methoxy-5-(pyridin-2-yloxy)phenyl)pyridin-2-yl)-2-methylbenzamide], the figure is 7.68.
Same read-out and setting: as for `COc1ccc(Oc2ccccn2)cc1-c1cnc(NC(=O)c2c(F)cccc2F)cn1` [Compound 39, 2,6-difluoro-N-(5-(2-methoxy-5-(pyridin-2-yloxy)phenyl)pyrazin-2-yl)benzamide], the figure is 7.60; as for `Cc1ccc(Oc2ccncc2)cc1-c1ccc(NC(=O)c2cccc(F)c2C)nc1` [Compound 40, 3-fluoro-2-methyl-N-(5-(2-methyl-5-(pyridin-4-yloxy)phenyl)pyridin-2-yl)benzamide], 7.41.
The same measure, in the same setting: as for `Cc1c(F)cccc1C(=O)Nc1ccc(-c2cc(Oc3cccnc3)ccc2C(F)(F)F)cn1` [Compound 41, 3-fluoro-2-methyl-N-(5-(5-(pyridin-3-yloxy)-2-(trifluoromethyl)phenyl)pyridin-2-yl)benzamide], the figure is 7.33.

The term pIC50 denotes the IC50 on a negative log10 scale, so that one unit is a factor of ten. The low end stands for a high IC50, the high end for a low IC50. A word on the inhibition: it is the change of the read-out against control, counted positive when it falls. A low value points to little suppression.

The values above are taken from patent US20100130522A1, “COMPOUNDS FOR INFLAMMATION AND IMMUNE-RELATED USES” (Synta Pharmaceuticals Corp., priority 2008, published 2010).
